Laboratory results taken from publication PMC8557866, “Novel Small Molecule Growth Inhibitor Affecting Bacterial Outer Membrane Reduces Extraintestinal Pathogenic Escherichia coli (ExPEC) Infection in Avian Model” (Microbiology Spectrum, 2021).
In brackets after ≈: the same amount, converted by molar mass. Where two headings read alike, the source gives them in different places.

Assays:
APEC serotype O78 = test system: APEC serotype O78
Method: The efficacy of GIs was assessed using commercial broiler chickens (n = 6/group). […] GI compounds (ChemBridge, San Diego, CA) dissolved in dimethyl sulfoxide (DMSO) were administered orally using a syringe, twice a day, from day 4 (1 day before APEC infection) to day 8 (3 days postinfection [dpi]). The dose of each GI is described in Table S1. […] Chickens that were infected and vehicle-treated (positive control [PC]) and noninfected and nontreated (negative control [NC]) were included as controls. On day 5, chickens were infected subcutaneously (s.c.) with rifampin-resistant (Rif^r) APEC serotype O78 ([18]) (1 × 10^7 CFU/chicken). […] To prepare the APEC inoculum for infection, Rif^r APEC O78 (50 μg/ml rifampin) was grown to logarithmic phase in LB medium, washed twice with phosphate-buffered saline (PBS), and adjusted to an optical density at 600 nm (OD600) of 0.1 (5 × 10^7 CFU/ml). The clinical signs and mortality were recorded until 7 dpi. Chickens that died during this period were necropsied on the same day, lesions in internal organs (liver, heart, lung, and air sacs) were scored as described previously ([63], [71]), and the APEC loads were quantified in internal organs (liver, heart, lung, and kidney) by plating the tissue homogenates on MacConkey agar plates containing 50 μg/ml rifampin ([18]). At 7 dpi (day 12), all live birds were euthanized, lesions were scored, and the APEC loads in internal organs were quantified as described above. The body weight of chickens was measured before GI treatment (day 3) and at the day of necropsy (day 12).

APEC [1] = assay: microbe, parasite or virus in culture; format: cell-based, Escherichia coli
APEC O78 = conditions: for Mortality reduction compared to PC group: 7 days, PC mortality 60%; for Cumulative lesion score: PC 8.8; for Survival of chickens: P < 0.05, log-rank test
Method: Prior to selection of these doses, we conducted a preliminary study using 20-mg/liter, 200-mg/liter, and 500-mg/liter doses (doses similar to those of antibiotics currently used in the poultry industry). […] The experiment was conducted using commercial broiler chickens (n = 11/group) as described above following procedures described in Fig. S1A. […] The amount of drinking water was adjusted daily based on the age and requirement of chickens (https://www.thepoultrysite.com/articles/broiler-water-consumption). The clinical signs and mortality, lesion scores, and APEC loads were determined as described above.

[2] = Pharmacokinetic study in plasma of chickens (LC-MS); format: in vivo
Method: Details of the methods are included in the supplemental material. page 3: previously(3). […] The mixtures were then incubated at […] for 30 min and proteins were removed by ultracentrifugation at 13,000xg for 25 min at 2 °C.

LptE = assay: LptD/E immunoblot analysis; format: cell-based, Escherichia coli; conditions: vs untreated APEC
Method: For immunoblot analysis, total membrane proteins (25 μg) resolved by SDS-PAGE under nonreducing (in the absence of β-mercaptoethanol) conditions ([37]) as described above were electrotransferred onto an Immun-Blot polyvinylidene difluoride (PVDF) membrane (Bio-Rad) and probed for LptD or LptE using anti-LptD (1:20,000) and anti-LptE (1:30,000) polyclonal rabbit antibodies (GenScript) and goat anti-rabbit IgG horseradish peroxidase (HRP)-conjugated secondary antibody (Sigma-Aldrich). Anti-LptD and anti-LptE antibodies were generated at GenScript using keyhole limpet hemocyanin (KLH)-conjugated peptides as the antigens (LptD epitope, […], and LptE epitope, […]). The epitopes were selected using the OptimumAntigen design tool (GenScript). The transferred membrane was developed with Clarity Western ECL substrate (Bio-Rad) and visualized in a FluorChem Q imager (ProteinSimple).

[3] = test system: eukaryotic cells and wax moth larva; design: method as in PMID 30333507; conditions: cited from earlier work
APEC [4] = conditions: 10^9 CFU with 2× MBC or 15 passages at 0.75× MIC; cited from earlier work
[5] = 20 mg/L in drinking water, vs PC
[6] = 20 mg/liter in drinking water, vs PC
[7] = 40 mg/L in drinking water, vs PC
[8] = 40 mg/liter in drinking water, vs PC
[9] = 60 mg/L in drinking water, vs PC
[10] = 60 mg/liter in drinking water, vs PC

COc1ccc(CNCc2cccc(C(F)(F)F)c2)cc1OCC(O)CN1CCCC1 (stereo not shown) [GI-7]
Mean APEC load, Heart (APEC serotype O78; efficacy trial, oral): 2.7 Log CFU/g tissues | Mean APEC load, Kidney (APEC serotype O78; efficacy trial, oral): 2.3 Log CFU/g tissues | Mean APEC load, Liver (APEC serotype O78; efficacy trial, oral): 2.1 Log CFU/g tissues | Mean APEC load, Lung (APEC serotype O78; efficacy trial, oral): 2.7 Log CFU/g tissues | Mean lesion score in Air sacs (APEC serotype O78; efficacy trial, oral): 0.7 | Mean lesion score in Heart (APEC serotype O78; efficacy trial, oral): 0.8 | Mean lesion score in Liver (APEC serotype O78; efficacy trial, oral): 0.7 | Mean lesion score in Lung (APEC serotype O78; efficacy trial, oral): 0.2 | Survival of chickens (APEC serotype O78; efficacy trial, oral, P ≤ 0.1, log rank test): prolonged the survival | Cumulative lesion score (APEC serotype O78; efficacy trial, oral, PC 6.2): 2.3 | Mortality reduction compared to PC group (APEC serotype O78; efficacy trial, oral, PC mortality 58.3%): 41.7% | % reduction in severity, Air sacs lesions (APEC serotype O78; efficacy trial, oral, vs PC): 52.9% | % reduction in severity, Heart lesions (APEC serotype O78; efficacy trial, oral, vs PC): 60% | % reduction in severity, Liver lesions (APEC serotype O78; efficacy trial, oral, vs PC): 60% | % reduction in severity, Lung lesions (APEC serotype O78; efficacy trial, oral, vs PC): 83.3% | log reduction in APEC load, Heart (APEC serotype O78; efficacy trial, oral, vs PC): 2.3 Log CFU/g tissues | log reduction in APEC load, Kidney (APEC serotype O78; efficacy trial, oral, vs PC): 3.2 Log CFU/g tissues | log reduction in APEC load, Liver (APEC serotype O78; efficacy trial, oral, vs PC): 2.5 Log CFU/g tissues | log reduction in APEC load, Lung (APEC serotype O78; efficacy trial, oral, vs PC): 2.4 Log CFU/g tissues | BWG (body weight gain) (APEC serotype O78; in vivo): 261.3±20.4 | Resistance in vivo (APEC [1]; APEC isolated from chickens treated with GI-7): no in vivo resistance | MBC (APEC [1]; Escherichia coli): 50 µM (≈ 21.9 µg/mL) | MIC (APEC [1]; Escherichia coli): 25 µM (≈ 11 µg/mL) | Mean APEC load, Heart (APEC O78; 20 mg/L in drinking water): 6.7 Log CFU/g tissues | Mean APEC load, Kidney (APEC O78; 20 mg/L in drinking water): 5.9 Log CFU/g tissues | Mean APEC load, Liver (APEC O78; 20 mg/L in drinking water): 6.0 Log CFU/g tissues | Mean APEC load, Lung (APEC O78; 20 mg/L in drinking water): 6.3 Log CFU/g tissues | log reduction in APEC load, Heart (APEC O78; [5]): -0.2 Log CFU/g tissues | log reduction in APEC load, Kidney (APEC O78; [5]): 0.2 Log CFU/g tissues | log reduction in APEC load, Liver (APEC O78; [5]): -0.1 Log CFU/g tissues | log reduction in APEC load, Lung (APEC O78; [5]): -0.4 Log CFU/g tissues | Mean lesion score in Air sacs (APEC O78; 20 mg/liter in drinking water): 2.3 | Mean lesion score in Heart (APEC O78; 20 mg/liter in drinking water): 2.7 | Mean lesion score in Liver (APEC O78; 20 mg/liter in drinking water): 2 | Mean lesion score in Lung (APEC O78; 20 mg/liter in drinking water): 1.8 | Mortality reduction compared to PC group (APEC O78; 20 mg/liter in drinking water): 10% | Cumulative lesion score (APEC O78; 20 mg/liter in drinking water): 8.8 | % reduction in severity, Air sacs lesions (APEC O78; [6]): 1.4% | % reduction in severity, Heart lesions (APEC O78; [6]): −9.5% | % reduction in severity, Liver lesions (APEC O78; [6]): 0% | % reduction in severity, Lung lesions (APEC O78; [6]): 10% | Mean APEC load, Heart (APEC O78; 40 mg/L in drinking water): 4.4 Log CFU/g tissues | Mean APEC load, Kidney (APEC O78; 40 mg/L in drinking water): 4.2 Log CFU/g tissues | Mean APEC load, Liver (APEC O78; 40 mg/L in drinking water): 3.9 Log CFU/g tissues | Mean APEC load, Lung (APEC O78; 40 mg/L in drinking water): 4.0 Log CFU/g tissues | log reduction in APEC load, Heart (APEC O78; [7]): 2.0 Log CFU/g tissues | log reduction in APEC load, Kidney (APEC O78; [7]): 1.9 Log CFU/g tissues | log reduction in APEC load, Liver (APEC O78; [7]): 2.0 Log CFU/g tissues | log reduction in APEC load, Lung (APEC O78; [7]): 2.0 Log CFU/g tissues | Reduction of severity of APEC lesions in internal organs (APEC O78; 40 mg/liter and 60 mg/liter in drinking water, vs PC): up to 36.3% | Mean lesion score in Heart (APEC O78; 40 mg/liter in drinking water): 2.6 | Mean lesion score in Liver (APEC O78; 40 mg/liter in drinking water): 2 | Mortality reduction compared to PC group (APEC O78; 40 mg/liter in drinking water): 50% | Survival of chickens (APEC O78; 40 mg/liter in drinking water): prolonged the survival | Cumulative lesion score (APEC O78; 40 mg/liter in drinking water): 7.7 | % reduction in severity, Heart lesions (APEC O78; [8]): −5.4% | % reduction in severity, Liver lesions (APEC O78; [8]): 0% | % reduction in severity, Lung lesions (APEC O78; [8]): 30% | Mean APEC load, Heart (APEC O78; 60 mg/L in drinking water): 4.0 Log CFU/g tissues | Mean APEC load, Kidney (APEC O78; 60 mg/L in drinking water): 3.6 Log CFU/g tissues | Mean APEC load, Liver (APEC O78; 60 mg/L in drinking water): 3.5 Log CFU/g tissues | Mean APEC load, Lung (APEC O78; 60 mg/L in drinking water): 4.4 Log CFU/g tissues | log reduction in APEC load, Heart (APEC O78; [9]): 2.4 Log CFU/g tissues | log reduction in APEC load, Kidney (APEC O78; [9]): 2.5 Log CFU/g tissues | log reduction in APEC load, Liver (APEC O78; [9]): 2.4 Log CFU/g tissues | log reduction in APEC load, Lung (APEC O78; [9]): 1.6 Log CFU/g tissues | Mean lesion score in Heart (APEC O78; 60 mg/liter in drinking water): 2.1 | Mean lesion score in Lung (APEC O78; 60 mg/liter in drinking water): 1.4 | Mortality reduction compared to PC group (APEC O78; 60 mg/liter in drinking water): 50.9% | Survival of chickens (APEC O78; 60 mg/liter in drinking water): prolonged the survival | Cumulative lesion score (APEC O78; 60 mg/liter in drinking water): 6.6 | % reduction in severity, Air sacs lesions (APEC O78; [10]): 33.8% | % reduction in severity, Heart lesions (APEC O78; [10]): 15.2% | % reduction in severity, Liver lesions (APEC O78; [10]): 13.6% | % reduction in severity, Lung lesions (APEC O78; [10]): 36.3% | Anti-APEC effect compared to treatment at 60 mg/liter (APEC O78; 80 mg/liter, follow-up study, data not shown): did not result in a better anti-APEC effect | Cmax ([2]; commercial broiler, plasma, po, mean ± standard deviation, read-out: Peak plasma concentration (Cmax)): 0.434 ± 0.389 µg/mL | Tmax ([2]; commercial broiler, plasma, po, postadministration, read-out: Time to maximum concentration (Tmax)): 8 h | Half-life ([2]; comparison in words): shorter half-life than SDM | Cumulative accumulation in plasma after repeated administration ([2]; data not shown): no cumulative accumulation | Excretion ([2]; plasma): ≤ 24 h | Absorption (time at which absorbed) ([2]; plasma, drinking water delivery): 0.5 h | LptE level (immunoblot) (LptE): decreased the LptE level | Toxicity to eukaryotic cells and wax moth larva [3]: minimally toxic | Resistance in vitro (APEC [4]): no resistance
